What was measured:
Format in all cases: in vivo
[1] = test system: Echinochloa crus-galli (ECHCG); experiment: Pre-emergence test; details: 3 weeks after treatment
Protocol: (§1) To evaluate their herbicidal activity, compounds according to the invention are tested using a representative range of plants: […] The pre-emergence tests involve spraying a liquid formulation of the compound onto the soil in which the seeds of the plant species mentioned above has recently been sown. The soil used in the tests is a prepared horticultural loam. […] In these tests untreated sown soil are used as controls.

[2] = test system: Ipomoea hederacea (IPOHE); experiment: Pre-emergence test; details: 3 weeks after treatment
Protocol: as §1

[3] = test system: thirteen weed species (broadleaf weeds and grasses); experiment: Pre-emergence test, summary over all weeds; details: for Number of weed species well / sufficiently controlled: out of thirteen species
Protocol: as §1

Lamium purpureum (LAMPU) = experiment: Post-emergence test; details: 2-4 weeks after treatment
Protocol: (§2) To evaluate their herbicidal activity, compounds according to the invention are tested using a representative range of plants:
(§3) These acetone solutions are diluted with water and the resulting formulations applied at dosage levels equivalent of about 0.025 to 0.4 kg per hectare of test compound per pot. After spraying the plants are placed on greenhouse benches and are cared for in the usual manner, commensurate with conventional greenhouse practices. From 2 to 4 weeks after treatment, the seedling plants are examined and rated according to the rating system provided above.

[4] = test system: Digitaria sanguinalis (DIGSA); experiment: Post-emergence test; details: 2-4 weeks after treatment
Protocol: as §2, §3

[5] = test system: Matricaria inodora (MATIN); experiment: Post-emergence test; details: 2-4 weeks after treatment
Protocol: as §2, §3

Setaria viridis (SETVI) = experiment: Post-emergence test; details: 2-4 weeks after treatment
Protocol: as §2, §3

Galium aparine (GALAP) = experiment: Post-emergence test; details: 2-4 weeks after treatment
Protocol: as §2, §3

Stellaria media (STEME) = experiment: Post-emergence test; details: 2-4 weeks after treatment
Protocol: as §2, §3

[6] = test system: Abutilon theophrasti (ABUTH); experiment: Post-emergence test; details: 2-4 weeks after treatment
Protocol: as §2, §3

[7] = test system: Cassia obtusifolia (CASOB); experiment: Post-emergence test; details: 2-4 weeks after treatment
Protocol: as §2, §3

[8] = test system: Ambrosia artemisifolia (AMBEL); experiment: Post-emergence test; details: 2-4 weeks after treatment
Protocol: as §2, §3

[9] = test system: Lolium multiflorum (LOLMU); experiment: Post-emergence test; details: 2-4 weeks after treatment
Protocol: as §2, §3

[10] = test system: Alopecurus myosuroides (ALOMY); experiment: Post-emergence test; details: 2-4 weeks after treatment
Protocol: as §2, §3

[11] = test system: Echinochloa crus-galli (ECHCG); experiment: Post-emergence test; details: 2-4 weeks after treatment
Protocol: as §2, §3

[12] = test system: Ipomoea hederacea (IPOHE); experiment: Post-emergence test; details: 2-4 weeks after treatment
Protocol: as §2, §3

Cc1cc(Oc2cc(C(F)(F)F)nn2C)nc(-n2ccc(C(F)(F)F)n2)c1 [Example 2, 4-methyl-2-(-3-trifluoromethyl-1H-prazol-1-yl)-6-(1-methyl-3-trifluoromethyl-pyrazol-5-yloxy)-pyridine]
Assessment rating ECHCG (pre-emergence application) ([1]; 0.013 kg/ha): 1 (1 - Trace effect) | Assessment rating ECHCG (pre-emergence application) ([1]; 0.025 kg/ha): 2 (2 - Slight effect) | Assessment rating ECHCG (pre-emergence application) ([1]; 0.100 kg/ha): 8 (8 - Approaching complete kill) | Assessment rating ECHCG (pre-emergence application) ([1]; 0.400 kg/ha): 8 (8 - Approaching complete kill) | Assessment rating IPOHE (pre-emergence application) ([2]; 0.013 kg/ha): 1 (1 - Trace effect) | Assessment rating IPOHE (pre-emergence application) ([2]; 0.025 kg/ha): 3 (3 - Moderate effect) | Assessment rating IPOHE (pre-emergence application) ([2]; 0.100 kg/ha): 6 (6 - Herbicidal effect) | Assessment rating IPOHE (pre-emergence application) ([2]; 0.400 kg/ha): 9 (9 - Complete kill) | Herbicidal activity, overall judgement [3]: excellent activity on both broadleaf weeds and grasses | Rate required to obtain the same level of weed control [3]: 0.100 kg/ha | Number of weed species well / sufficiently controlled ([3]; 0.100 kg/ha): eleven out of thirteen species | Number of weed species well / sufficiently controlled ([3]; 0.400 kg/ha): all of the thirteen weed species | Rating LAMPU (post-emergence application) (Lamium purpureum (LAMPU); 0.025 kg/ha): 8 (8 - Approaching complete kill) | Rating LAMPU (post-emergence application) (Lamium purpureum (LAMPU); 0.100 kg/ha): 9 (9 - Complete kill) | Rating LAMPU (post-emergence application) (Lamium purpureum (LAMPU); 0.400 kg/ha): 9 (9 - Complete kill) | Rating DIGSA (post-emergence application) ([4]; 0.025 kg/ha): 6 (6 - Herbicidal effect) | Rating DIGSA (post-emergence application) ([4]; 0.100 kg/ha): 8 (8 - Approaching complete kill) | Rating DIGSA (post-emergence application) ([4]; 0.400 kg/ha): 9 (9 - Complete kill) | Rating MATIN (post-emergence application) ([5]; 0.025 kg/ha): 6 (6 - Herbicidal effect) | Rating MATIN (post-emergence application) ([5]; 0.100 kg/ha): 8 (8 - Approaching complete kill) | Rating MATIN (post-emergence application) ([5]; 0.400 kg/ha): 8 (8 - Approaching complete kill) | Rating SETVI (post-emergence application) (Setaria viridis (SETVI); 0.025 kg/ha): 6 (6 - Herbicidal effect) | Rating SETVI (post-emergence application) (Setaria viridis (SETVI); 0.100 kg/ha): 8 (8 - Approaching complete kill) | Rating SETVI (post-emergence application) (Setaria viridis (SETVI); 0.400 kg/ha): 9 (9 - Complete kill) | Rating GALAP (post-emergence application) (Galium aparine (GALAP); 0.025 kg/ha): 5 (5 - Definite injury) | Rating GALAP (post-emergence application) (Galium aparine (GALAP); 0.100 kg/ha): 6 (6 - Herbicidal effect) | Rating GALAP (post-emergence application) (Galium aparine (GALAP); 0.400 kg/ha): 8 (8 - Approaching complete kill) | Rating STEME (post-emergence application) (Stellaria media (STEME); 0.025 kg/ha): 8 (8 - Approaching complete kill) | Rating STEME (post-emergence application) (Stellaria media (STEME); 0.100 kg/ha): 9 (9 - Complete kill) | Rating STEME (post-emergence application) (Stellaria media (STEME); 0.400 kg/ha): 9 (9 - Complete kill) | Rating ABUTH (post-emergence application) ([6]; 0.025 kg/ha): 6 (6 - Herbicidal effect) | Rating ABUTH (post-emergence application) ([6]; 0.100 kg/ha): 8 (8 - Approaching complete kill) | Rating ABUTH (post-emergence application) ([6]; 0.400 kg/ha): 9 (9 - Complete kill) | Rating CASOB (post-emergence application) ([7]; 0.025 kg/ha): 9 (9 - Complete kill) | Rating CASOB (post-emergence application) ([7]; 0.100 kg/ha): 9 (9 - Complete kill) | Rating CASOB (post-emergence application) ([7]; 0.400 kg/ha): 9 (9 - Complete kill) | Rating AMBEL (post-emergence application) ([8]; 0.025 kg/ha): 6 (6 - Herbicidal effect) | Rating AMBEL (post-emergence application) ([8]; 0.100 kg/ha): 8 (8 - Approaching complete kill) | Rating AMBEL (post-emergence application) ([8]; 0.400 kg/ha): 8 (8 - Approaching complete kill) | Rating LOLMU (post-emergence application) ([9]; 0.025 kg/ha): 6 (6 - Herbicidal effect) | Rating LOLMU (post-emergence application) ([9]; 0.100 kg/ha): 9 (9 - Complete kill) | Rating LOLMU (post-emergence application) ([9]; 0.400 kg/ha): 9 (9 - Complete kill) | Rating ALOMY (post-emergence application) ([10]; 0.025 kg/ha): 4 (4 - Injury) | Rating ALOMY (post-emergence application) ([10]; 0.100 kg/ha): 8 (8 - Approaching complete kill) | Rating ALOMY (post-emergence application) ([10]; 0.400 kg/ha): 8 (8 - Approaching complete kill) | Rating ECHCG (post-emergence application) ([11]; 0.025 kg/ha): 6 (6 - Herbicidal effect) | Rating ECHCG (post-emergence application) ([11]; 0.100 kg/ha): 9 (9 - Complete kill) | Rating ECHCG (post-emergence application) ([11]; 0.400 kg/ha): 9 (9 - Complete kill) | Rating IPOHE (post-emergence application) ([12]; 0.025 kg/ha): 9 (9 - Complete kill) | Rating IPOHE (post-emergence application) ([12]; 0.100 kg/ha): 9 (9 - Complete kill) | Rating IPOHE (post-emergence application) ([12]; 0.400 kg/ha): 9 (9 - Complete kill)

Source: patent US6448204B1, “Herbicidal 2-aryloxy-4-methyl-6-pyrazol-1-yl-pyridines” (BASF Aktiengesellschaft, priority 1999, dated 2002)
